Experimental data as given in ChEMBL document CHEMBL5370646, “Synthesis and Conformational Analysis of FR901464-Based RNA Splicing Modulators and Their Synergism in Drug-Resistant Cancers” (J Med Chem, 2023).

Experiments:
HCT-116 [1] = assay: Modulation of RNA splicing in human HCT-116 cells assessed as decrease in SF3B1 phosphorylation at thr313 residue by Western blot analysis; type: functional, cell-based; settings: dose 3-100 nM
DMS-53 [2] = assay: Synergistic antiproliferative activity against human DMS-53 cells assessed as combination index at 1.5 nM incubated for 72 hrs in presence of […] venetoclax by WST-1 assay; type: functional
[3] = Synergistic antiproliferative activity against human Osimertinib-resistant HCC827AR cell assessed as combination index at 1.5 nM incubated for 72 hrs in presence of 0.50 uM osimertinib by WST-1 assay; type: functional
DMS-53 [4] = assay: Synergistic antiproliferative activity against human DMS-53 cells assessed as combination index at 1.5 nM incubated for 72 hrs in presence of 50 uM venetoclax by WST-1 assay; type: functional
DMS-53 [5] = assay: Synergistic antiproliferative activity against human DMS-53 cells assessed as combination index at 2 nM incubated for 72 hrs in presence of 50 […] by WST-1 assay; type: functional
DMS-114 [6] = assay: Growth inhibition of human DMS-114 cells assessed as reduction in cell viability incubated for 72 hrs; type: functional
DMS-114 [7] = assay: Synergistic antiproliferative activity against human DMS-114 cells assessed as combination index at 2 nM incubated for 72 hrs in presence of 3.6 uM venetoclax by WST-1 assay; type: functional
DMS-53 [8] = assay: Synergistic antiproliferative activity against human DMS-53 cells assessed as combination index at 1.5 nM incubated for 72 hrs in presence of […] venetoclax by WST-1 assay; type: functional
DMS-53 [9] = assay: Growth inhibition of human DMS-53 cells assessed as reduction in cell viability incubated for 72 hrs; type: functional
DMS-53 [10] = assay: Synergistic antiproliferative activity against human DMS-53 cells assessed as combination index at 1 nM incubated for 72 hrs in presence of […] venetoclax by WST-1 assay; type: functional
[11] = Synergistic antiproliferative activity against human Osimertinib-resistant HCC827AR cell assessed as combination index at 1 nM incubated for 72 hrs in presence of 0.25 uM osimertinib by WST-1 assay; type: functional
[12] = Synergistic antiproliferative activity against human Osimertinib-resistant HCC827AR cell assessed as combination index at 2 nM incubated for 72 hrs in presence of 1 uM osimertinib by WST-1 assay; type: functional
[13] = Synergistic antiproliferative activity against human Osimertinib-resistant HCC827AR cell assessed as combination index at 2.5 nM incubated for 72 hrs in presence of 2 uM osimertinib by WST-1 assay; type: functional
DMS-114 [14] = assay: Synergistic antiproliferative activity against human DMS-114 cells assessed as combination index at 3 nM incubated for 72 hrs in presence of 4.8 uM venetoclax by WST-1 assay; type: functional
HCT-116 [15] = assay: Modulation of RNA splicing in human HCT-116 cells assessed as decrease in MCL-1S expression by Western blot analysis; type: functional, cell-based; settings: dose 3-100 nM
[16] = Synergistic antiproliferative activity against human Osimertinib-resistant HCC827AR cell assessed as combination index at 1 nM incubated for 72 hrs in presence of 2 uM osimertinib by WST-1 assay; type: functional
[17] = Metabolic stability in CD1 mouse plasma assessed as half life measured after 48 hrs by LC-MS analysis; type: ADME, cell-free
DMS-53 [18] = assay: Synergistic antiproliferative activity against human DMS-53 cells assessed as combination index at 2 nM incubated for 72 hrs in presence of 400 […] by WST-1 assay; type: functional
DMS-114 [19] = assay: Synergistic antiproliferative activity against human DMS-114 cells assessed as combination index at 3 nM incubated for 72 hrs in presence of 12 uM venetoclax by WST-1 assay; type: functional
DMS-53 [20] = assay: Synergistic antiproliferative activity against human DMS-53 cells assessed as combination index at 1 nM incubated for 72 hrs in presence of 50 uM venetoclax by WST-1 assay; type: functional
[21] = Synergistic antiproliferative activity against human Osimertinib-resistant HCC827AR cell assessed as combination index at 1 nM incubated for 72 hrs in presence of 1 uM osimertinib by WST-1 assay; type: functional
DMS-53 [22] = assay: Synergistic antiproliferative activity against human DMS-53 cells assessed as combination index at 1 nM incubated for 72 hrs in presence of […] venetoclax by WST-1 assay; type: functional
[23] = Synergistic antiproliferative activity against human Osimertinib-resistant HCC827AR cell assessed as combination index at 2.5 nM incubated for 72 hrs in presence of 0.50 uM osimertinib by WST-1 assay; type: functional
DMS-53 [24] = assay: Synergistic antiproliferative activity against human DMS-53 cells assessed as combination index at 0.5 nM incubated for 72 hrs in presence of […] venetoclax by WST-1 assay; type: functional
DMS-53 [25] = assay: Synergistic antiproliferative activity against human DMS-53 cells assessed as combination index at 0.5 nM incubated for 72 hrs in presence of 25 uM venetoclax by WST-1 assay; type: functional
DMS-114 [26] = assay: Synergistic antiproliferative activity against human DMS-114 cells assessed as combination index at 1 nM incubated for 72 hrs in presence of 12 uM venetoclax by WST-1 assay; type: functional
DMS-53 [27] = assay: Synergistic antiproliferative activity against human DMS-53 cells assessed as combination index at 1 nM incubated for 72 hrs in presence of […] venetoclax by WST-1 assay; type: functional
HCT-116 [28] = assay: Growth inhibition of human HCT-116 cells assessed as reduction in cell viability incubated for 72 hrs; type: functional
DMS-53 [29] = assay: Synergistic antiproliferative activity against human DMS-53 cells assessed as combination index at 1.5 nM incubated for 72 hrs in presence of 25 uM venetoclax by WST-1 assay; type: functional
DMS-53 [30] = assay: Synergistic antiproliferative activity against human DMS-53 cells assessed as combination index at 1.5 nM incubated for 72 hrs in presence of […] venetoclax by WST-1 assay; type: functional
[31] = Synergistic antiproliferative activity against human Osimertinib-resistant HCC827AR cell assessed as combination index at 2.5 nM incubated for 72 hrs in presence of 1 uM osimertinib by WST-1 assay; type: functional

With `COCO[C@@H](C)/C=C\C(=O)N[C@@H]1C[C@H](C)[C@H](C/C=C(C)/C=C/[C@H]2OC(C)(C)C[C@@]3(CO3)[C@@H]2O)O[C@@H]1C` the Activity (HCT-116 [1]) was “Dose-Dependent Effect”, the CI (DMS-53 [2]) was 0.72 and the CI [3] was 1.28. For the same compound, the CI (DMS-53 [4]) was 0.63, the CI (DMS-53 [5]) was 0.47 and the GI50 (DMS-114 [6]) was 2.3 nM. It also gave a CI (DMS-114 [7]) of 0.63, a CI (DMS-53 [8]) of 0.51 and a GI50 (DMS-53 [9]) of 2.7 nM. For the same compound, the CI (DMS-53 [10]) was 1.08, the CI [11] was 1.06 and the CI [12] was 1.2. The CI [13] was 0.99, the CI (DMS-114 [14]) was 0.21 and the Activity (HCT-116 [15]) was “Dose-Dependent Effect”. It also gave a CI [16] of 1.37, a half-life [17] of 780 min and a CI (DMS-53 [18]) of 0.33. For the same compound, the CI (DMS-114 [19]) was 0.14, the CI (DMS-53 [20]) was 0.8 and the CI [21] was 1.48. For the same compound, the CI (DMS-53 [22]) was 1.26, the CI [23] was 0.99 and the CI (DMS-53 [24]) was 1.35. It also gave a CI (DMS-53 [25]) of 1.33, a CI (DMS-114 [26]) of 0.88 and a CI (DMS-53 [27]) of 0.91. For the same compound, the GI50 (HCT-116 [28]) was 2 nM, the CI (DMS-53 [29]) was 0.7 and the CI (DMS-53 [30]) was 0.67. The CI [31] was 1.04.
